Assay results published in ChEMBL document CHEMBL3046121, “Design and synthesis of new N-substituted amino methyl-[1,2,3] triazolyl moieties of fluoroquinolones as antibacterial agents” (2013).
≈ marks a conversion by molar mass, not a printed value.

Tests used:
Type in all cases: functional
Moraxella catarrhalis = assay: Antibacterial activity against Moraxella catarrhalis ATCC 25238 assessed as growth inhibition after 24 hr by two-fold serial dilution method; settings: ATCC 25238, 24 h
Acinetobacter baumannii = assay: Antibacterial activity against Acinetobacter baumannii BAA 747 assessed as growth inhibition after 24 hr by two-fold serial dilution method; settings: BAA 747, 24 h
Klebsiella pneumoniae = assay: Antibacterial activity against clinical Klebsiella pneumoniae AB 356 assessed as growth inhibition after 24 hr by two-fold serial dilution method; settings: AB 356, 24 h
Enterococcus faecalis = assay: Antibacterial activity against Vancomycin-resistant Enterococcus faecalis ATCC 700802 assessed as growth inhibition after 24 hr by two-fold serial dilution method; settings: ATCC 700802, 24 h
Staphylococcus aureus [1] = assay: Antibacterial activity against Methicillin-resistant Staphylococcus aureus ATCC 33591 assessed as growth inhibition after 24 hr by two-fold serial dilution method; settings: ATCC 33591, 24 h
Staphylococcus aureus [2] = assay: Antibacterial activity against methicillin-sensitive Staphylococcus aureus ATCC 29213 assessed as growth inhibition after 24 hr by two-fold serial dilution method; settings: ATCC 29213, 24 h

Row | Structure (SMILES) | MIC (Moraxella catarrhalis) [µg/mL] | MIC (Acinetobacter baumannii) [µg/mL] | MIC (Klebsiella pneumoniae) [µg/mL] | MIC (Enterococcus faecalis) [µg/mL] | MIC (Staphylococcus aureus [1]) [µg/mL] | MIC (Staphylococcus aureus [2]) [µg/mL]
1 | O=C(O)c1cn(C2CC2)c2cc(-n3cc(CNC4CCCCCC4)nn3)c(F)cc2c1=O | 8 (≈ 18.2 µM) | 16 (≈ 36.4 µM) | 16 (≈ 36.4 µM) | 32 (≈ 72.8 µM) | 32 (≈ 72.8 µM) | 32 (≈ 72.8 µM)
2 | O=C(O)c1cn(C2CC2)c2cc(-n3cc(CNc4ccccc4)nn3)c(F)cc2c1=O | 0.125 (≈ 0.298 µM) | 1 (≈ 2.38 µM) | 1 (≈ 2.38 µM) | 2 (≈ 4.77 µM) | 0.5 (≈ 1.19 µM) | 0.25 (≈ 0.596 µM)
3 | O=C(O)c1cn(C2CC2)c2cc(-n3cc(CNc4ccc(F)cc4)nn3)c(F)cc2c1=O | 0.25 (≈ 0.572 µM) | 2 (≈ 4.57 µM) | 2 (≈ 4.57 µM) | 4 (≈ 9.14 µM) | 1 (≈ 2.29 µM) | 0.25 (≈ 0.572 µM)
4 | O=C(O)c1cn(C2CC2)c2cc(-n3cc(CNc4ccc(Cl)cc4)nn3)c(F)cc2c1=O | 0.125 (≈ 0.275 µM) | 0.5 (≈ 1.1 µM) | 1 (≈ 2.2 µM) | 1 (≈ 2.2 µM) | 0.25 (≈ 0.551 µM) | 0.25 (≈ 0.551 µM)
5 | COc1ccc(NCc2cn(-c3cc4c(cc3F)c(=O)c(C(=O)O)cn4C3CC3)nn2)cc1 | 0.5 (≈ 1.11 µM) | 8 (≈ 17.8 µM) | 4 (≈ 8.9 µM) | 2 (≈ 4.45 µM) | 0.5 (≈ 1.11 µM) | 0.5 (≈ 1.11 µM)
6 | Cc1ccc(NCc2cn(-c3cc4c(cc3F)c(=O)c(C(=O)O)cn4C3CC3)nn2)cc1 | 0.125 (≈ 0.288 µM) | 8 (≈ 18.5 µM) | 4 (≈ 9.23 µM) | 2 (≈ 4.61 µM) | 0.5 (≈ 1.15 µM) | 0.5 (≈ 1.15 µM)
7 | O=C(O)c1cn(C2CC2)c2cc(-n3cc(CNCc4ccccc4)nn3)c(F)cc2c1=O | 1 (≈ 2.31 µM) | 8 (≈ 18.5 µM) | 1 (≈ 2.31 µM) | 4 (≈ 9.23 µM) | 2 (≈ 4.61 µM) | 2 (≈ 4.61 µM)
8 | O=C(O)c1cn(C2CC2)c2cc(-n3cc(CNCc4ccc(F)cc4)nn3)c(F)cc2c1=O | 1 (≈ 2.22 µM) | 8 (≈ 17.7 µM) | 2 (≈ 4.43 µM) | 4 (≈ 8.86 µM) | 2 (≈ 4.43 µM) | 2 (≈ 4.43 µM)
9 | O=C(O)c1cn(C2CC2)c2cc(-n3cc(Cn4ccnc4)nn3)c(F)cc2c1=O | 8 (≈ 20.3 µM) | 32 (≈ 81.1 µM) | 32 (≈ 81.1 µM) | 32 (≈ 81.1 µM) | 32 (≈ 81.1 µM) | 32 (≈ 81.1 µM)
10 | CN(C)Cc1cn(-c2cc3c(cc2F)c(=O)c(C(=O)O)cn3C2CC2)nn1 | 1 (≈ 2.69 µM) | 8 (≈ 21.5 µM) | 2 (≈ 5.39 µM) | 16 (≈ 43.1 µM) | 8 (≈ 21.5 µM) | 4 (≈ 10.8 µM)
11 | CCN(CC)Cc1cn(-c2cc3c(cc2F)c(=O)c(C(=O)O)cn3C2CC2)nn1 | 16 (≈ 40.1 µM) | 16 (≈ 40.1 µM) | 16 (≈ 40.1 µM) | 32 (≈ 80.1 µM) | 32 (≈ 80.1 µM) | 8 (≈ 20 µM)
12 | CCCN(CCC)Cc1cn(-c2cc3c(cc2F)c(=O)c(C(=O)O)cn3C2CC2)nn1 | 2 (≈ 4.68 µM) | 16 (≈ 37.4 µM) | 8 (≈ 18.7 µM) | 32 (≈ 74.9 µM) | 32 (≈ 74.9 µM) | 8 (≈ 18.7 µM)
13 | O=C(O)c1cn(C2CC2)c2cc(-n3cc(CN4CCCC4)nn3)c(F)cc2c1=O | 1 (≈ 2.52 µM) | 8 (≈ 20.1 µM) | 2 (≈ 5.03 µM) | 16 (≈ 40.3 µM) | 8 (≈ 20.1 µM) | 2 (≈ 5.03 µM)
14 | O=C(O)c1cn(C2CC2)c2cc(-n3cc(CN4CCCCC4)nn3)c(F)cc2c1=O | 1 (≈ 2.43 µM) | 8 (≈ 19.4 µM) | 2 (≈ 4.86 µM) | 16 (≈ 38.9 µM) | 16 (≈ 38.9 µM) | 4 (≈ 9.72 µM)
15 | O=C(O)c1cn(C2CC2)c2cc(-n3cc(CN4CCOCC4)nn3)c(F)cc2c1=O | 4 (≈ 9.68 µM) | 16 (≈ 38.7 µM) | 16 (≈ 38.7 µM) | 16 (≈ 38.7 µM) | 16 (≈ 38.7 µM) | 8 (≈ 19.4 µM)
16 | O=C(O)c1cn(C2CC2)c2cc(-n3cc(CN4CCNCC4)nn3)c(F)cc2c1=O | 8 (≈ 19.4 µM) | 32 (≈ 77.6 µM) | 8 (≈ 19.4 µM) | 32 (≈ 77.6 µM) | 16 (≈ 38.8 µM) | 16 (≈ 38.8 µM)
17 | CC(C)NCc1cn(-c2cc3c(cc2F)c(=O)c(C(=O)O)cn3C2CC2)nn1 | 1 (≈ 2.59 µM) | 16 (≈ 41.5 µM) | 4 (≈ 10.4 µM) | 16 (≈ 41.5 µM) | 16 (≈ 41.5 µM) | 16 (≈ 41.5 µM)
18 | O=C(O)c1cn(C2CC2)c2cc(-n3cc(CNC4CC4)nn3)c(F)cc2c1=O | 32 (≈ 83.5 µM) | 32 (≈ 83.5 µM) | 32 (≈ 83.5 µM) | 16 (≈ 41.7 µM) | 16 (≈ 41.7 µM) | 16 (≈ 41.7 µM)
19 | O=C(O)c1cn(C2CC2)c2cc(-n3cc(CNC4CCCC4)nn3)c(F)cc2c1=O | 1 (≈ 2.43 µM) | 16 (≈ 38.9 µM) | 4 (≈ 9.72 µM) | 16 (≈ 38.9 µM) | 16 (≈ 38.9 µM) | 16 (≈ 38.9 µM)
20 | O=C(O)c1cn(C2CC2)c2cc(-n3cc(CNC4CCCCC4)nn3)c(F)cc2c1=O | 1 (≈ 2.35 µM) | 8 (≈ 18.8 µM) | 2 (≈ 4.7 µM) | 32 (≈ 75.2 µM) | 32 (≈ 75.2 µM) | 16 (≈ 37.6 µM)
21 | O=C(O)c1cn(C2CC2)c2cc(N3CCNCC3)c(F)cc2c1=O [CIPROFLOXACIN] | 0.25 (≈ 0.754 µM) | 0.5 (≈ 1.51 µM) | – | 0.5 (≈ 1.51 µM) | 0.5 (≈ 1.51 µM) | 0.5 (≈ 1.51 µM)
22 | CC(=O)NC[C@H]1CN(c2ccc(N3CCOCC3)c(F)c2)C(=O)O1 [LINEZOLID] | 4 (≈ 11.9 µM) | > 32 | > 32 | – | – | –
